Key:
Test in all cases: relative viability (nuclei count vs DMSO), 5 days (fraction); higher = more cells survive
[1] = compound: C[C@@H](N)c1ccc(C(=O)Nc2ccnc3[nH]ccc23)cc1 + CS(=O)(=O)N1CCN(Cc2cc3nc(-c4cccc5[nH]ncc45)nc(N4CCOCC4)c3s2)CC1 [Pictilisib] (partner 1 µM)
Procedure, shortened: (§1)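 Lung cancer cell lines, seeded in 1536-well plates, were treated the following day by pin tool with a single drug or with five library-drug doses (not always all listed) in √10 steps on top of a fixed anchor-drug dose. Cells were fixed and nuclei stained in one step after 5 days, and nuclei were counted. Relative viability is the nuclei count for treated wells divided by that for vehicle wells, reported as medians of duplicate plates.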

[2] = compound: C[C@@H](N)c1ccc(C(=O)Nc2ccnc3[nH]ccc23)cc1 + CC(=O)Nc1cccc(-n2c(=O)n(C3CC3)c(=O)c3c(Nc4ccc(I)cc4F)n(C)c(=O)c(C)c32)c1 [Trametinib] (partner 0.02 µM)
Procedure, shortened: as §1

[3] = compound: C1CNCCC1C2=CC(=NN2)C3=CC=NC=C3 + CS(=O)(=O)N1CCN(Cc2cc3nc(-c4cccc5[nH]ncc45)nc(N4CCOCC4)c3s2)CC1 [Pictilisib] (partner 1 µM)
Procedure, shortened: as §1

Tanzisertib + Tozasertib = compound: O[C@H]1CC[C@H](Nc2ncc3nc(Nc4c(F)cc(F)cc4F)n([C@H]4CCOC4)c3n2)CC1 [Tanzisertib] + Cc1cc(Nc2cc(N3CCN(C)CC3)nc(Sc3ccc(NC(=O)C4CC4)cc3)n2)n[nH]1 [Tozasertib] (partner 0.1 µM)
Procedure, shortened: as §1

Cell Line: UMC-11
- relative viability ([1]; first compound 0.04 µM): 0.715
- relative viability ([1]; first compound 0.1265 µM): 0.759
- relative viability ([1]; first compound 0.4 µM): 0.93
- relative viability ([1]; first compound 1.265 µM): 0.177
- relative viability ([1]; first compound 4 µM): 0.767
- relative viability ([2]; first compound 0.04 µM): 0.867
- relative viability ([2]; first compound 0.1265 µM): 0.767
- relative viability ([2]; first compound 0.4 µM): 0.849
- relative viability ([2]; first compound 1.265 µM): 0.184
- relative viability ([2]; first compound 4 µM): 0.525
- relative viability ([3]; first compound 0.08 µM): 0.698
- relative viability ([3]; first compound 0.8 µM): 1.16
- relative viability ([3]; first compound 2.53 µM): 0.97
- relative viability ([3]; first compound 8 µM): 0.822
- relative viability (Tanzisertib + Tozasertib; first compound 0.08 µM): 0.208
- relative viability (Tanzisertib + Tozasertib; first compound 0.253 µM): 0.191
- relative viability (Tanzisertib + Tozasertib; first compound 0.8 µM): 0.212
- relative viability (Tanzisertib + Tozasertib; first compound 2.53 µM): 0.215
- relative viability (Tanzisertib + Tozasertib; first compound 8 µM): 0.209

From the supplement of paper PMC10307832
